Laboratory results: patent publication US6743586B2, “Rapid fluorescence detection of binding to nucleic acid drug targets labelled with highly fluorescent nucleotide base analogs” (The United States of America as represented by the …, priority 2001, dated 2004)
Read-outs that look alike come from different tables or passages of the source. *1 amine or outer side, *2 acyl side, *3 side chain or, on linkers, in order; H or OH if unused. Where no end group is shown, it is not given here. Suc = O=C(CCC(=O)[*:2])[*:1]

Assays:
[1] = biological target: 68AP-RRE; assay: 2-AP fluorescence titration of 68AP-RRE with aminoglycosides; assay type: binding, HIV-1
Method: For example, using the 68AP-RRE construct, three classes of binding sites for the Neomycin B can be detected.
(§1) The fluorescence of RNA oligonucleotide samples (150 μL), selectively labeled with 2-AP, was measured at 10° C. on a SPEX Fluoromax-2 spectrofluorometer (Instruments, SA, Edison, N.J.) using a 0.3 cm square cuvette. RRE sample concentration was typically 100 nM in either standard buffer A (140 mM NaCl, 5 mM KCl, 1 mM MgCl2, 1 mM CaCl2, and 20 mM HEPES [7.4 pH]) or buffer B (25 mM NaCl, 5 mM KCl and 1 mM Cacodylate [6.5 pH]). Emission spectra were recorded over the wavelength range of 330 to 450 nm with an excitation wavelength of 310 nm. The spectral bandpass was 5 nm for all spectra. The dissociation constant for rev binding to RRE-72AP was determined by following the increase in fluorescence at 370 nm as a fixed concentration of the fluorescent RNA was titrated with increasing amounts if rev. Similarly, the binding of aminoglycosides was followed by monitoring the change in 2-AP fluorescence as a fixed concentration of RRE-72AP or RRE-68AP was titrated with increasing amounts of the aminoglycoside. Single site binding of rev or aminoglycoside was fitted to Formula I: […]
where Fo and Ff are the initial and final fluorescence intensities, respectively, [RRE]tot is the total RRE concentration, and [L]tot is the total concentration of rev, aminoglycoside or other ligands. Aminoglycoside binding to multiple sites on RRE was modeled using the computer program Dynafit. Competitive displacement assays were performed to determine which aminoglycoside binding were inhibitory to rev binding. For these experiments, a solution of 2-AP labeled RRE was incubated with a fixed concentration of Neomycin B (or rev peptide), and the fluorescence change followed as increasing amounts of competing rev peptide (or Neomycin B) was added to the solution. The fluorescence emission intensities at 370 nm as a function of total added ligand concentration were fit to a given molecular mechanism by non-linear least squared regression using the computer program Dynafit.

[2] = biological target: 72AP-RRE-peptide complex; assay: Competitive displacement: 72AP-RRE-peptide complex (1:1) titrated with Neomycin B, Dynafit fit; assay type: binding, HIV-1
Method: Quantitative analysis of the binding event indicates the rev peptide binds to 2-AP RRE with wild type affinity (KD˜13±2 nM). The fluorescent 72AP-RRE construct is also a useful probe for assaying small molecule binding to RRE, as well as determining if the small molecule is an effective inhibitor of the rev-RRE interaction. For example, it has been shown using the aminoglycoside Neomycin B, a known inhibitor of RRE-rev interaction, that the 72AP-RRE construct can be used to detect small molecule inhibition of the rev-RRE interaction. […]
as §1, with “RRE sample concentration was typically 100 nM in either standard buffer A (140 mM NaCl, 5 mM KCl, 1 mM MgCl2, 1 mM CaCl2, and 20 mM HEPES [7.4 pH]) or buffer B (25 mM NaCl, 5 mM KCl and 1 mM Cacodylate [6.5 pH]).” left out, “The spectral bandpass was 5 nm for all spectra.” left out, “aminoglycoside.” for “aminoglycoside. Single site binding of rev or aminoglycoside was fitted to Formula I:”

[3] = biological target: 72AP-RRE; assay: 2-AP fluorescence titration of RRE-72AP with rev peptide; parameters: species or system HIV-1; details: fluorescence at 370 nm, 10° C., wild type affinity, read-out: KD of rev peptide binding to 2-AP RRE
Method: The fluorescence of RNA oligonucleotide samples (150 μL), selectively labeled with 2-AP, was measured at 10° C. on a SPEX Fluoromax-2 spectrofluorometer (Instruments, SA, Edison, N.J.) using a 0.3 cm square cuvette. RRE sample concentration was typically 100 nM in either standard buffer A (140 mM NaCl, 5 mM KCl, 1 mM MgCl2, 1 mM CaCl2, and 20 mM HEPES [7.4 pH]) or buffer B (25 mM NaCl, 5 mM KCl and 1 mM Cacodylate [6.5 pH]). Emission spectra were recorded over the wavelength range of 330 to 450 nm with an excitation wavelength of 310 nm. The spectral bandpass was 5 nm for all spectra. The dissociation constant for rev binding to RRE-72AP was determined by following the increase in fluorescence at 370 nm as a fixed concentration of the fluorescent RNA was titrated with increasing amounts if rev. Similarly, the binding of aminoglycosides was followed by monitoring the change in 2-AP fluorescence as a fixed concentration of RRE-72AP or RRE-68AP was titrated with increasing amounts of the aminoglycoside. Single site binding of rev or aminoglycoside was fitted to Formula I:
F=−{(Fo−Ff)/2*[RRE]tot}{b−{square root over ((b^2−4[L]tot[RRE]tot))}}+Fo (1)
where Fo and Ff are the initial and final fluorescence intensities, respectively, [RRE]tot is the total RRE concentration, and [L]tot is the total concentration of rev, aminoglycoside or other ligands. […]

[4] = biological target: RRE; details: direct binding, highly specific for the RRE; read-out: KD of rev binding to RRE; cited from earlier work

NC[C@@H]1O[C@H](O[C@H]2[C@@H](O)[C@H](O[C@@H]3[C@@H](O)[C@H](N)C[C@H](N)[C@H]3O[C@H]3O[C@H](CN)[C@@H](O)[C@H](O)[C@H]3N)O[C@@H]2CO)[C@H](N)[C@@H](O)[C@@H]1O [Neomycin B]
Kd ([1]; 68AP-RRE construct, read-out: KD, first site, non-inhibitory to rev binding): 240 ± 40 nM
Kd ([1]; 68AP-RRE construct, read-out: KD, second site, inhibited rev binding in a competitive fashion): 1800 ± 80 nM
Kd ([1]; 68AP-RRE construct, read-out: KD, third class of sites, non-specific binding): ~40000 nM
Kd ([2]; read-out: KD, first tight site): ~230 nM
Kd ([2]; read-out: KD, second site, competitive with rev): ~1900 nM

[H]/N=C(/N)N[C@H]1[C@H](O)[C@@H](O)[C@H](O[C@@H]2O[C@@H](C)[C@](O)(C=O)[C@H]2O[C@@H]2O[C@@H](CO)[C@H](O)[C@@H](O)[C@@H]2NC)[C@@H](N/C(N)=N\[H])[C@@H]1O [Streptomycin]
Kd ([1]; RRE, reported alongside the 68AP-RRE data, read-out: KD, low affinity binding interaction with RRE): 1500 nM

Suc-TRQARRNRRWRERQRAAAK [rev peptide]
Kd [3]: ~13 nM

rev: HIV-1 regulatory protein rev that binds the rev-responsive element (RRE)
Kd [4]: 1 to 3 nM
